Assay results reported in ChEMBL document CHEMBL2380277, “A new synthesis of 4'-resveratrol esters and evaluation of the potential for anti-depressant activity” (Bioorg Med Chem Lett, 2013).
Blank lines part the entries; values can stand above or below the compound they belong to. Activity calls are given as the source filed them. The calls are words filed in the database; no cut-off is given here.

Key:
Rattus norvegicus [1] = experiment: Toxicity in Long-Evans rat assessed as hypothalamic aromatase level at 20 mg/kg, sc measured per mg of protein measured for 21 days (reference value: 60 +/- 6.1 pmol/hr); type: organism-based; set-up: dose 20 mg/kg, route subcutaneous; details: in vivo, 504 h
Rattus norvegicus [2] = experiment: Toxicity in Long-Evans rat assessed as water intake at 20 mg/kg, sc measured after 20 to 21 days (reference value: 50.7 +/- 3.5 mL); type: organism-based; set-up: dose 20 mg/kg, route subcutaneous; details: in vivo
Rattus norvegicus [3] = experiment: Toxicity in Long-Evans rat assessed as food intake at 20 mg/kg, sc measured after 8 to 9 days (reference value: 33.1 +/- 1.5 g); type: organism-based; set-up: dose 20 mg/kg, route subcutaneous; details: in vivo
Rattus norvegicus [4] = experiment: Antidepressant activity in Long-Evans rat assessed as effect on number of boli excreted at 20 to 90 mg/kg, sc administered 21 days measured for 6 mins by Porsalt forced-swim test relative to vehicle-treated control; type: functional, organism-based
Rattus norvegicus [5] = experiment: Toxicity in Long-Evans rat assessed as food intake at 90 mg/kg, sc measured after 20 to 21 days (reference value: 33.8 +/- 1.8 g); type: organism-based; set-up: dose 90 mg/kg, route subcutaneous; details: in vivo
Rattus norvegicus [6] = experiment: Antidepressant activity in Long-Evans rat assessed as mobile index at 20 mg/kg, sc administered 21 days measured for 6 mins by Porsalt forced-swim test (reference value: 286 +/- 8.7 secs); type: functional; details: route subcutaneous
Rattus norvegicus [7] = experiment: Antidepressant activity in Long-Evans rat assessed as mobile index at 90 mg/kg, sc administered 21 days measured for 6 mins by Porsalt forced-swim test (reference value: 286 +/- 8.7 secs); type: functional; details: route subcutaneous
Rattus norvegicus [8] = experiment: Toxicity in Long-Evans rat assessed as water intake at 20 mg/kg, sc measured after 8 to 9 days (reference value: 53.3 +/- 2.7 mL); type: organism-based; set-up: dose 20 mg/kg, route subcutaneous; details: in vivo
Rattus norvegicus [9] = experiment: Toxicity in Long-Evans rat assessed as white adipose tissue weight/body weight ratio at 20 to 90 mg/kg, sc measured after 21 days; type: organism-based; set-up: dose 20-90 mg/kg, route subcutaneous; details: in vivo, 504 h
Rattus norvegicus [10] = experiment: Toxicity in Long-Evans rat assessed as water intake at 90 mg/kg, sc measured after 20 to 21 days (reference value: 50.7 +/- 3.5 mL); type: organism-based; set-up: dose 90 mg/kg, route subcutaneous; details: in vivo
Rattus norvegicus [11] = experiment: Toxicity in Long-Evans rat assessed as food intake at 90 mg/kg, sc measured after 8 to 9 days (reference value: 33.1 +/- 1.5 g); type: organism-based; set-up: dose 90 mg/kg, route subcutaneous; details: in vivo
Rattus norvegicus [12] = experiment: Toxicity in Long-Evans rat assessed as food intake at 20 mg/kg, sc measured after 20 to 21 days (reference value: 33.8 +/- 1.8 g); type: organism-based; set-up: dose 20 mg/kg, route subcutaneous; details: in vivo
Rattus norvegicus [13] = experiment: Toxicity in Long-Evans rat assessed as change in estrous cycle pattern at 20 to 90 mg/kg, sc measured for 8 days by vaginal histological analysis; type: organism-based; set-up: dose 20-90 mg/kg, route subcutaneous; details: in vivo, 192 h
Rattus norvegicus [14] = experiment: Antidepressant activity in Long-Evans rat assessed as effect on dives at 20 to 90 mg/kg, sc administered 21 days measured for 6 mins by Porsalt forced-swim test relative to vehicle-treated control; type: functional, organism-based
HL-60 = experiment: Cytotoxicity against human HL60 cells; type: functional; details: read-out: ED50 (the source's name)
Rattus norvegicus [15] = experiment: Antidepressant activity in Long-Evans rat assessed as effect on swim speed at 20 to 90 mg/kg, sc administered 21 days measured for 6 mins by Porsalt forced-swim test relative to vehicle-treated control; type: functional, organism-based
Rattus norvegicus [16] = experiment: Antidepressant activity in Long-Evans rat assessed as effect on inverts at 20 to 90 mg/kg, sc administered 21 days measured for 6 mins by Porsalt forced-swim test relative to vehicle-treated control; type: functional, organism-based
Rattus norvegicus [17] = experiment: Toxicity in Long-Evans rat assessed as water intake at 90 mg/kg, sc measured after 8 to 9 days (reference value: 53.3 +/- 2.7 mL); type: organism-based; set-up: dose 90 mg/kg, route subcutaneous; details: in vivo
Rattus norvegicus [18] = experiment: Toxicity in Long-Evans rat assessed as white adipose tissue weight at 20 to 90 mg/kg, sc measured after 21 days; type: organism-based; set-up: dose 20-90 mg/kg, route subcutaneous; details: in vivo, 504 h
Rattus norvegicus [19] = experiment: Toxicity in Long-Evans rat assessed as hypothalamic aromatase level at 90 mg/kg, sc measured per mg of protein measured for 21 days (reference value: 60 +/- 6.1 pmol/hr); type: organism-based; set-up: dose 90 mg/kg, route subcutaneous; details: in vivo, 504 h
[20] = Half life in human; type: ADME, organism-based; details: in vivo

Structure (SMILES): CC(=O)Oc1ccc(/C=C/c2cc(O)cc(O)c2)cc1
Activity (Rattus norvegicus [1]): 71 pmol/h | Activity (Rattus norvegicus [2]): 50.9 mL | Activity (Rattus norvegicus [3]): 34.3 g | Activity (Rattus norvegicus [4]): Active | Activity (Rattus norvegicus [5]): 36.9 g | Time (Rattus norvegicus [6]): 312 s | Time (Rattus norvegicus [7]): 319 s | Activity (Rattus norvegicus [8]): 52.1 mL | Ratio (Rattus norvegicus [9]): 2.4 | Activity (Rattus norvegicus [10]): 55.8 mL | Activity (Rattus norvegicus [11]): 35.2 g | Activity (Rattus norvegicus [12]): 35.2 g | Activity (Rattus norvegicus [13]): Non-toxic | Activity (Rattus norvegicus [14]): Active | EC50 (HL-60): 17 µM | Activity (Rattus norvegicus [15]): Active | Activity (Rattus norvegicus [16]): Active | Activity (Rattus norvegicus [17]): 56.7 mL | Activity (Rattus norvegicus [18]): 6.6 g | Activity (Rattus norvegicus [19]): 73 pmol/h

half-life [20]: 30 min
Structure (SMILES): Oc1ccc(/C=C/c2cc(O)cc(O)c2)cc1 [RESVERATROL]
EC50 (HL-60): 22 µM
